Article PMC6474336, “Cloning and characterization of a tyrosine decarboxylase involved in the biosynthesis of galanthamine in Lycoris aurea” (PeerJ, 2019)

Assays:
[1] = system: LaTYDC1; assay: HPLC of dopamine formed; format: biochemical, Lycoris aurea; settings: pyridoxal-5-phosphate, 50 mM Tris-HCl pH 8.0, 37 °C; GST fusion
Description: HPLC of dopamine formed on LaTYDC1

[2] = system: LaTYDC1; assay: HPLC of tyramine formed; format: biochemical, Lycoris aurea; settings: pyridoxal-5-phosphate, 50 mM Tris-HCl pH 8.0, 37 °C; GST fusion; Table 1 labels this row 'Tyramine' and prints error ± 0.12

## N[C@@H](Cc1ccc(O)c(O)c1)C(=O)O [L-Dopa, 3,4-dihydroxy-L-phenylalanine]
[1]
  Km: 966 ± 79 µM

## N[C@@H](Cc1ccc(O)cc1)C(=O)O [L-tyrosine]
[2]
  Km: 602 ± 38 µM
